The values below come from patent publication US20240051978A1, “3-CYCLIC AMINE-INDOLE DERIVATIVES AS SEROTONERGIC AGENTS FOR THE TREATMENT OF CNS DISORDERS” (MINDSET PHARMA INC., priority 2020, published 2024).

Each structure is given as a SMILES string.

Data set [1] is described as follows: Liver microsomes stability, human. Conditions: for Remaining Percentage (%) 0 min / Remaining Percentage (%) 60 min: Human. The procedure:
(§1) The objective of this study was to estimate in vitro metabolic stability of 1-12 in pooled human and male mouse liver microsomes. The concentrations of parent compounds in reaction systems were evaluated by LC-MS/MS for estimating the stability in pooled human and male mouse liver microsomes. The in vitro intrinsic clearances of test compounds were determined as well.
(§2) A master solution in the “Incubation Plate” containing phosphate buffer, ultra-pure H2O, MgCl2 solution and liver microsomes was made according to Table 3. The mixture was pre-warmed at 37° C. water bath for 5 minutes.
(§3) 40 μL of 10 mM NADPH solution was added to each well. The final concentration of NADPH was 1 mM. The negative control samples were prepared by replacing NADPH with 40 μL of ultra-pure H2O. Samples were prepared in duplicate. Negative controls were prepared in singlet.
(§4) The reaction was started with the addition of 4 μL of 200 μM exemplary test compounds or control compounds to each master solution to get the final concentration of 2 μM. This study was performed in duplicate.
(§5) Aliquots of 50 μL were taken from the reaction solution at 0, 15, 30, 45 and 60 minutes. The reaction solutions were stopped by the addition of 4 volumes of cold methanol with IS (100 nM alprazolam, 200 nM imipramine, 200 nM labetalol and 2 μM ketoprofen). Samples were centrifuged at 3,220 g for 40 minutes. Aliquot of 90 μL of the supernatant was mixed with 90 μL of ultra-pure H2O and then was used for LC-MS/MS analysis.
(§6) LC/MS analysis was performed for all samples from this study using a Shimadzu liquid chromatograph separation system equipped with degasser DUG-20A5R; solvent delivery unit LC-30AD; system controller SIL-30AC; column oven CTO-30A; CTC Analytics HTC PAL System; Mass spectrometric analysis was performed using an Triple Quad™ 5500 instrument.
(§7) All calculations were carried out using Microsoft Excel. Peak area ratios of test compound to internal standard (listed in the below table) were determined from extracted ion chromatograms.
(§8) All calculations were carried out using Microsoft Excel. Peak areas were determined from extracted ion chromatograms. The slope value, k, was determined by linear regression of the natural logarithm of the remaining percentage of the parent drug vs. incubation time curve.
(§9) The in vitro half-life (in vitro t½) was determined from the slope value:
(§10) Conversion of the in vitro t½ (min) into the in vitro intrinsic clearance (in vitro CLint, in μL/min/mg proteins) was done using the following equation (mean of duplicate determinations): […]
(Microsomes from liver hold many membrane-bound enzymes, among them those of drug oxidation.)

Data set [2] can be described thus: Liver microsomes stability, mouse. Conditions: for Remaining Percentage (%) 0 min / Remaining Percentage (%) 60 min: Mouse. The procedure: as §1, §2, §3, §4, §5, §6, §7, §8, §9, §10
Data set [3] can be described thus: Liver microsomes stability, rat. Conditions: for Remaining Percentage (%) 0 min / Remaining Percentage (%) 60 min: Rat. The procedure: as §1, §2, §3, §4, §5, §6, §7, §8, §9, §10

As usually defined, the CLint scaled is a measure of how fast metabolising enzymes remove a compound, apart from limits set by blood flow. Lower therefore signals greater metabolic stability. For the molecule `CN(C)CCc1c[nH]c2cccc(O)c12` [Psilocin, 4-hydroxy-N,N-dimethyltryptamine, reference compound], the “Predicted hepatic CL” value is on record as 8.64 mL/min/kg in data set [1] (Human liver microsomes, with NADPH); 29.00 mL/min/kg in data set [2] (Mouse liver microsomes, with NADPH); 18.53 mL/min/kg in data set [3] (Rat liver microsomes, with NADPH). Further, the “Remaining Percentage (%) 0 min” value in data set [1] (With NADPH), in data set [1] (Without NADPH), in data set [2] (With NADPH), in data set [2] (Without NADPH), in data set [3] (With NADPH) and in data set [3] (Without NADPH) was 100.00% each time. Moreover, the “Remaining Percentage (%) 60 min” value was 70.16% in data set [1] (With NADPH); 87.13% in data set [1] (Without NADPH); 74.57% in data set [2] (With NADPH); 91.98% in data set [2] (Without NADPH); 62.68% in data set [3] (With NADPH); 96.98% in data set [3] (Without NADPH). Moreover, the CLint scaled at 2 μM in data set [1] (human, microsomes) was determined as 14.8 mL/min/kg; in data set [2] (male, mouse, microsomes), 42.8 mL/min/kg; in data set [3] (rat, microsomes), 27.9 mL/min/kg.
